Assay results: patent US11850237B2, “Compounds and methods for treating influenza” (priority 2009, dated 2023)
pEC50: −log10 of the molar value. In brackets after ≈: the same amount, converted by molar mass. Like-named read-outs stand apart in the source and are kept apart here.

Assays:
[1] = tested on: H1N1 A/PR/8/34 (PR8) virus; experiment: microbe, parasite or virus in culture; format: cell-based, influenza A virus; settings: for PR8 Yield: no zanamivir (Control)
[2] = tested on: Parainfluenza; experiment: Activity against other respiratory viruses: Parainfluenza; format: cell-based
[3] = Double-blind placebo controlled trials in influenza-like illness; format: in vivo, human
Procedure: Evaluation of the effect of twice daily nitazoxanide for 5 days on the duration of symptoms in pediatric patients and adults with influenza-like illnesses was conducted. Two double-blind placebo controlled trials were conducted. Children 12 months-11 years of age were given NTZ suspension (n=100, 50 per group) and Patients ≥12 years of age were given NTZ 500 mg tablets (n=86, 43 per group). Single center trials were conducted. Studies were based on TAMIFLU® trials. The trials followed specific Inclusion/exclusion criteria. Inclusion required children age 1-11 years of patients ≥12 years of age with a fever >100° F. with ≥1 respiratory symptom (including cough, nasal discharge, sneezing, sore throat, etc.) and/or with ≥1 constitutional symptom (myalgia, malaise, fatigue, headache, chills/sweat, etc.). Major exclusions included symptom duration ≥72 hours, pregnancy or breastfeeding, concurrent antibiotics/antiviral medication, or a history of asthma or other pulmonary disease.
Patients were randomized to receive NTZ or placebo b.i.d. for 5 days. Nasopharyngeal swab collected at baseline for rapid direct immunofluorescence assay (SimulFluor respiratory Screen) for 7 viruses (RSV, Influenza A & B, Parainfluenza 1-3, and Adenovirus). Symptoms recorded in a daily diary by the patient (or parent) with each symptom graded on a scale of 0 to 3: absent, mild, moderate, severe. Tissue was stored in a ziplock plastic bag and collected daily by study personnel for weighing. A follow up physical examination was conducted on day 7. The primary endpoint was the time from baseline to each symptom returning to absent or mild (<2). Secondary endpoints include antibiotic use, day 7 respiratory symptoms, daily tissue/mucus weight.

[4] = tested on: H1N1 A/PR/8/34 (PR8); experiment: microbe, parasite or virus in culture; format: cell-based, influenza A virus
[5] = tested on: influenza; experiment: Clinical trials, treatment of influenza; format: in vivo, human; settings: orally 300 mg or 600 mg twice daily for 5 days
Procedure: Low dose administration of thiazolides such as NTZ to treat virus infection. NTZ can be administered orally at a dose of 300 mg or 600 mg twice daily for 5 days as a treatment of influenza. […] Preferably, the dosage of nitazoxanide is 300 mg twice daily for 5 days, which is less than the dosage of NTZ needed to treat intestinal infections, thereby enabling a reduction of side effects associated with higher dosages. Thiazolides can also be administered as a modified release bi-layer tablet. As such, thiazolides can be administered in 100 mg, 200 mg, 300 mg, 400 mg, 500 mg or 600 mg doses twice daily for 5 days to treat virus infection.

[6] = tested on: Respiratory syncytial virus; experiment: Activity against other respiratory viruses: Respiratory syncytial virus; format: cell-based; settings: human respiratory syncytial virus
[7] = Cytotoxicity (CC50) in the other respiratory virus assays
[8] = tested on: viral hemagglutinin (HA0); format: cell-based, influenza A virus; settings: WSN in A549 cells, A/Ck and PR8 in MDCK cells
[9] = Toxicity / cell viability by MTT in uninfected MDCK cells; format: cell-based, canine; settings: dog, uninfected MDCK cells; uninfected cells
Procedure: (§1) Cell culture, treatment and transfection-Madin-Darby canine kidney (MDCK) cells, and human A549 alveolar type II-like epithelial, Jurkat Tlymphoblastoid and U397 monocytic leukemia cells were grown at 37° C. in a 5% CO2 atmosphere in RPMI 1640 (Invitrogen), supplemented with 10% fetal calf serum (FCS), 2 mM glutamine and antibiotics. Test compounds were added immediately after 1-hour adsorption period, and kept in the culture medium for the entire time of the experiment, unless differently specified. […] Cell viability was determined by the 3-(4,5-dimethylthiazol-2-yl)-2,5-diphenyltetrazolium bromide (MTT) to MTT formazan conversion assay (Sigma-Aldrich) as described previously. Microscopical examination of mock-infected or virus-infected cells was performed using a Leica DM-IL microscope and images were captured on a Leica DC 300 camera using Leica Image-Manager500 software.

[10] = tested on: MDCK cells; experiment: as above; format: cell-based, canine; settings: MDCK cells, MTT
Procedure: as §1

[11] = tested on: H5N9 low-pathogenicity avian strain A/Ck/It/9097/97 (A/Ck); experiment: microbe, parasite or virus in culture; format: cell-based; settings: Influenza A virus, H5N9, MDCK, 24 h, read-out: EC50, inhibition of virus replication
[12] = tested on: A/WSN/33 (WSN); experiment: microbe, parasite or virus in culture; format: cell-based; settings: Influenza A virus, MDCK, 24 h, read-out: EC50, inhibition of virus replication
[13] = tested on: Coronavirus; experiment: Activity against other respiratory viruses: Coronavirus; format: cell-based
[14] = tested on: Adenovirus; experiment: Activity against other respiratory viruses: Adenovirus; format: cell-based; settings: unidentified adenovirus
[15] = tested on: Rhinovirus; experiment: Activity against other respiratory viruses: Rhinovirus; format: cell-based, human rhinovirus; settings: Enterovirus
[16] = tested on: H1N1 A/PR/8/34 (PR8) virus; experiment: microbe, parasite or virus in culture; format: cell-based, influenza A virus; settings: Influenza A virus, MDCK, 24 h

Question: For `CC(=O)Oc1ccccc1C(=O)Nc1ncc([N+](=O)[O-])s1` [Compound 1, nitazoxanide], which EC50 ([1]; Influenza A virus, MDCK, 24 h, read-out: EC50 of NTZ in the experiments with zanamivir) is on record?
Answer: 0.66 µg/mL

Question: And the pEC50 ([1]; Influenza A virus, MDCK, 24 h, read-out: EC50 of NTZ in the experiments with zanamivir (molar equivalent))?
Answer: ~5.66

Question: And the “PR8 Yield” value ([1]; Nitazoxanide 0.1 μg/ml)?
Answer: 48 HAU/ml

Question: What about the “PR8 Yield” value ([1]; Nitazoxanide 1 μg/ml) of the same compound?
Answer: 16 HAU/ml

Question: What about the EC50 [2] of the same compound?
Answer: 0.5 µg/mL (≈ 1.63 µM)

Question: What about the “respiratory symptoms, Day 7 Physical Exam” value ([3]; influenza-like illness, FIG. 13) of the same compound?
Answer: reduces respiratory symptoms

Question: What about the “resolution of symptoms associated with influenza-like illness” value ([3]; subjects not positive for Adenovirus, RSV, Influenza A, Parainfluenza 1, FIG. 12) of the same compound?
Answer: can resolve symptoms

Question: And the “treatment of patients with influenza like illness” value ([3]; twice daily for 5 days vs placebo, patients mostly negative for Adenovirus, RSV, Influenza A, Parainfluenza 1)?
Answer: has the ability to treat patients

Question: What about the EC50 ([4]; Influenza A virus, MDCK, 24 h, read-out: EC50, inhibition of virus replication) of the same compound?
Answer: 1 µg/mL

Question: What about the pEC50 ([4]; Influenza A virus, MDCK, PR8 virus, separate studies, read-out: EC50 (molar equivalent)) of the same compound?
Answer: 5.48

Question: And the EC50 ([4]; Influenza A virus, PR8, MDCK cells, read-out: Virus Yield EC50)?
Answer: 1 µg/mL

Question: And the EC90 ([4]; Influenza A virus, PR8, MDCK cells, read-out: Virus Yield EC90)?
Answer: 7 µg/mL (≈ 22.8 µM)

Question: And the “antiviral activity against PR8, overall rating” value ([4]; PR8 influenza A virus, Table 1)?
Answer: potent and selective

Question: What about the “treatment of influenza in clinical trials” value [5] of the same compound?
Answer: has the ability to treat influenza

Question: What about the EC50 [6] of the same compound?
Answer: 0.5 µg/mL (≈ 1.63 µM)

Question: What about the CC50 [7] of the same compound?
Answer: > 50 µg/mL

Question: What about the CC50 ([7]; Adenovirus line of Table 3) of the same compound?
Answer: >50 µg/mL

Question: And the CC50 ([7]; Coronavirus line of Table 3)?
Answer: >50 µg/mL

Question: And the CC50 ([7]; Respiratory syncytial virus line of Table 3)?
Answer: >50 µg/mL

Question: What about the CC50 ([7]; Rhinovirus line of Table 3) of the same compound?
Answer: >50 µg/mL

Question: What about the “HA0 maturation in other host cells and strains” value [8] of the same compound?
Answer: caused similar alterations

Question: And the CC50 [9]?
Answer: > 50 µg/mL

Question: And the “Toxicity LD50 (MTT)” value [10]?
Answer: >50 µg/mL

Question: What about the EC50 [11] of the same compound?
Answer: 1 µg/mL (≈ 3.25 µM)

Question: And the EC50 [12]?
Answer: 0.5 µg/mL (≈ 1.63 µM)

Question: What about the EC50 [13] of the same compound?
Answer: 1 µg/mL (≈ 3.25 µM)

Question: What about the EC50 [14] of the same compound?
Answer: 0.2 µg/mL (≈ 0.651 µM)

Question: What about the EC50 [15] of the same compound?
Answer: > 10 µg/mL

Question: And the EC50 ([16]; read-out: EC50 of NTZ in the experiments with oseltamivir)?
Answer: 1 µg/mL

Question: What about the pEC50 ([16]; read-out: EC50 of NTZ in the experiments with oseltamivir (molar equivalent)) of the same compound?
Answer: 5.48
